# US7815905B2, “Methods of increasing insulin sensitivity or decreasing insulin secretion by administering corticotropin releasing factor receptor-2 inhibitors” (Research Development Foundation, priority 2006, dated 2010)
# “Also recorded” adds a separate entry of the source. Ends that are not written are not given here.
# How the values were obtained:
# Ucn 2 null mice [1] = assay: Insulin tolerance test (ITT) in Ucn 2 null mice; format: in vivo, mouse; settings: fasted male Ucn 2 null mice; 0.1 μg/kg IP 20 min prior to insulin 0.75 U/kg
# Experimental: (§1) FIG. 1a-f: Metabolic phenotype of Ucn 2 null mice. […] The ability of the Ucn 2 null mice and wild type littermates to handle a glucose load was assessed using a standard glucose tolerance test (see example 1). Fasted male mice were injected intraperitoneally (IP) with glucose (2 g/kg body weight) and blood glucose levels were measured before and at 15, 30, 60, 90 and 120 min following glucose injection. […] Fasted male Ucn 2 null mice were injected IP with saline or with 0.1 μg/kg body weight Ucn 2, 20 min prior to glucose injection (2 g/kg body weight) and blood glucose levels were measured before and at 15, 30, 60 and 90 min following glucose injection. […] Fasted male wild type mice were injected IP with saline or with astressin2B (30 μg/kg body weight), 20 min prior to glucose injection (2 g/kg body weight), and blood glucose levels were measured before and at 15, 30, 60 and 90 min following glucose injection. (d) The enhanced glucose tolerance in the Ucn 2 null mice is not due to increased insulin secretion. Fasted male mice were injected with glucose (3 g/kg body weight, IP) and blood samples were collected at 2, 5, 15 and 30 min following glucose injection and insulin was measured by radioimmunoassay. […] Fasted male mice were injected with insulin (0.75 U/kg body weight, IP) and blood glucose levels were measured before and at 15, 30, 60 and 90 min following insulin injection. […]
# Ucn 2 null mice [2] = assay: Glucose tolerance test (GTT) in Ucn 2 null mice; format: in vivo, mouse; settings: fasted male Ucn 2 null mice; 0.1 μg/kg IP 20 min prior to glucose 2 g/kg
# Experimental: as §1
# [3] = system: insulin signaling in C2C12 myotubes; assay: Phosphorylation studies of insulin signaling in C2C12 myotubes; format: cell-based
# Experimental: FIG. 3a-l: Urocortin 2 effects on muscle glucose uptake are mediated by inhibition of insulin signaling. (a-f). Ucn 2 inhibits the insulin-induced Akt and ERK1/2 phosphorylation but not the insulin receptor phosphorylation. Differentiated C2C12 myotubes were pre-incubated with or without Ucn 2 peptide (0.1, 1 or 10 nM) for 1 hour prior to insulin treatment (10 nM, 5 min). Cell lystates were resolved using 4-12% gradient polyacrylamide gels. Gels were electrophorectically transferred to membranes and probed with antibodies specific for the phospho proteins pAkt (Ser 473), pERK1/2 or pIR (Tyr1146). Stimulation of Akt, ERK or insulin receptor (IR) activation was calculated by fold activation of the phosphorylated form normalized to total and compared with the untreated controls (a, d and f, graphs). […] (g-j) Ucn 2 treatment increases the phosphorylation of serine residue 307 and not the tyrosin phosphorylation of IRS-1. Myotube cells, treated with or without PKA inhibitor (H-89), were incubated with insulin and different concentrations of Ucn 2. IRS-1 immunoprecipitated proteins were electrophoresed as before and the immunoblots were probed for phosphorylated tyrosin (g), phosphorylated serine 307 IRS-1 (i) and total IRS-1 (g, i). […] (k) The effect of Ucn 2 on [^3H]2-deoxy-D-glucose uptake in differentiated C2C12 myotubes. Cells were incubated for 2 hours in low glucose, serum free medium and treated with Ucn 2 (0.1, 1 or 10 nM) or without (control) for 30 min prior to insulin administration (10 nM). Glucose uptake was measured 5 min following exposure to [^3H]2-deoxy-D-glucose. Non-specific uptake was measured by incubating muscle tissue with cytochalasin B, which binds to the glucose uptake transporter (GLUT) and inhibits glucose transport into the cell. Specific uptake was calculated by subtracting non specific from total glucose. (l) Schematic representation of the putative cellular mechanisms mediating the effect of Ucn 2 and CRFR2 on the insulin signaling and glucose uptake in skeletal muscle cells. * indicates p<0.05 vs. no treatment. # indicates p<0.05 vs. insulin treatment (b, d, f) or p<0.05 vs. insulin treatment and Ucn 2 (i).
# Differentiated C2C12 myotubes were pre-incubated with or without Ucn 2 peptide (0.1, 1 or 10 nM) for 1 hour prior to insulin treatment (10 nM, 5 min). Cells were harvested immediately in 100 μl of sample treatment buffer [STB, 50 mM Tris (pH 6.8), 100 mM dithiothreitol, 2% (wt/vol) sodium dodecyl sulfate, 0.1% (wt/vol) bromphenol blue, and 10% (wt/vol) glycerol]. The samples were boiled for 5 min, proteins were electrophoresed on 4-12% sodium dodecyl sulfate-polyacrylamide gradient gel (Invitrogen Life Technologies), subsequently transferred onto nitrocellulose membranes, and probed with antibodies specific for phosphorylated Akt (Ser 473, Cell Signaling Technology, Inc., Beverly, Mass.), phosphorylated ERK1/2-p42, 44 (Santa Cruz Biotechnology, Inc., Santa Cruz, Calif.), phosphorylated insulin receptor (Tyr 1146, Cell Signaling Technology, Inc.), or phosphorylated IRS1 (Ser 307, Upstate Cell Signaling Solutions, Lake placid, NY). The membranes were washed with phosphate buffer saline containing 0.05% (vol/vol) Tween 20 and incubated with horseradish peroxidase-conjugated anti mouse or rabbit IgG raised in sheep (Amersham Biotech Pharmacia). Immunoreactive proteins were visualized using Super Signal West Pico Chemiluminescent substrate (Pierce, Rockford, Ill.). The relative protein levels were determined using densitometry (Image quant 1.2) by probing the membranes with antibodies directed against total proteins.
# C2C12 myotubes = assay: [3H]2-deoxy-D-glucose uptake in C2C12 myotubes; format: cell-based; settings: 0.1, 1 or 10 nM for 30 min prior to insulin 10 nM
# Experimental: FIG. 3a-l: Urocortin 2 effects on muscle glucose uptake are mediated by inhibition of insulin signaling. (a-f). Ucn 2 inhibits the insulin-induced Akt and ERK1/2 phosphorylation but not the insulin receptor phosphorylation. Differentiated C2C12 myotubes were pre-incubated with or without Ucn 2 peptide (0.1, 1 or 10 nM) for 1 hour prior to insulin treatment (10 nM, 5 min). Cell lystates were resolved using 4-12% gradient polyacrylamide gels. Gels were electrophorectically transferred to membranes and probed with antibodies specific for the phospho proteins pAkt (Ser 473), pERK1/2 or pIR (Tyr1146). Stimulation of Akt, ERK or insulin receptor (IR) activation was calculated by fold activation of the phosphorylated form normalized to total and compared with the untreated controls (a, d and f, graphs). […] (g-j) Ucn 2 treatment increases the phosphorylation of serine residue 307 and not the tyrosin phosphorylation of IRS-1. Myotube cells, treated with or without PKA inhibitor (H-89), were incubated with insulin and different concentrations of Ucn 2. […] Glucose uptake was measured 5 min following exposure to [^3H]2-deoxy-D-glucose. Non-specific uptake was measured by incubating muscle tissue with cytochalasin B, which binds to the glucose uptake transporter (GLUT) and inhibits glucose transport into the cell. Specific uptake was calculated by subtracting non specific from total glucose. […]
# [4] = 0.1, 1 or 10 nM for 1 hour prior to insulin 10 nM, 5 min
# [5] = IRS-1 immunoprecipitates, insulin and Ucn 2
substance,measurement,setting,value
"Ucn 2: Urocortin 2, member of the CRF family, CRFR2 agonist; synthetic peptide (IVLSLDVPIGLLQILLEQARARAAREQATTNARILARVGHC; ends and bridges not checked; UniProt Q96RP3 72-112, looked up)",blood glucose in insulin tolerance test,Ucn 2 null mice [1],restored blood glucose levels to those of wild type mice; also recorded: restores blood glucose to wild type levels
same,blood glucose in glucose tolerance test,Ucn 2 null mice [2],restores blood glucose to wild type levels
same,insulin-induced ERK1/2 phosphorylation,[3]; [4],reduces; also recorded: inhibited; also recorded: dose dependently inhibits
same,insulin-induced phosphorylation of Akt (Ser 473),[3]; [4],reduces; also recorded: inhibits the insulin-induced phosphorylation of Akt in a dose dependent fashion; also recorded: dose dependently inhibits
same,insulin-induced phosphorylation of the insulin receptor (Tyr1146),[3]; [4],no significant differences
same,phosphorylation of IRS-1 on serine residue 307,[3]; [5],greatly increases; also recorded: strongly increases
same,tyrosine phosphorylation of IRS-1 in response to insulin,[3]; [5],remains unchanged
same,insulin induced glucose uptake,C2C12 myotubes,reduces; also recorded: dose dependently inhibited
